The conditions of data set [1]: cited from earlier work.
A short description of data set [2]: Particle size concluded from X-ray diffractograms. Format: physicochemical. The note with it: XRD. The text has this: The wide reflection between 15 and 20 20 values indicates the amorphous structure of the Carbopol 971. The characteristic reflections of the crystalline Sildenafil citrate can be found on the XRD diffractogram of nanosized Sildenafil citrate, but with lower intensity.

The nature of data set [3]: Visual observation of wettability by stereomicroscope. The format is physicochemical. The note with it: one drop of distillate water on 0.1 mg powder. The protocol:
Wettability of nanostructured Sildenafil Citrate particles was investigated in distilled water and was visualized by stereomicroscope equipped with CCD camera. 0.1 mg reference and nanostructure Sildenafil powder was placed to the slide and then one drop of distillate water was added to the powder.

`CCCc1nn(C)c2c(=O)[nH]c(-c3cc(S(=O)(=O)N4CCN(C)CC4)ccc3OCC)nc12.O=C(O)CC(O)(CC(=O)O)C(=O)O` [Sildenafil citrate, 1-[[3-(6,7-dihydro-1-methyl-7-oxo-3-propyl-1H-pyrazolo[4,3-d]pyrimidin-5-yl)-4-ethoxyphenyl]sulfonyl]-4-methylpiperazine citrate]: the absolute bioavailability in data set [1] (oral) is reported as 41%. Further, the “dose dependence of AUC and cmax” value in data set [1] (single doses from 1.25 to 200 mg) was “dose-proportional”. Also, the “particle size from diffractograms” value in data set [2] is recorded as 1-2 μm. In data set [3], the wettability entry was “stayed in their aggregated state”.
